Experimental data as given in US4956504A, “Novel spergualin-related compounds and process for producing the same” (Zaidan Hojin Biseibutsu Kagaku Kenkyu Kai, priority 1986, dated 1990).
Where a name gives a salt, the structure may show the parent alone.

Columns and labels:
mice = test: Acute toxicity: administration amount causing acute death to mice; format: in vivo
Experimental: A compound of the present invention was dissolved in a physiological saline solution in various concentrations. Each of the resulting solutions was intraperitoneally administered to one of CDF1 -SLC female mice (one group: two to three mice) in an amount of 0.1 ml per 10 g of body weight. The highest concentration of present compound in solution was 400 mg/10 ml/kg, and starting from this solution of highest concentration, solutions of lower concentrations were prepared each time at a common ratio of 2. The administration amount of present compound with the lowest concentration solution with which at least one mouse died was taken as an administration amount of acute toxicity.
(§1) In Tables and 5, a control compound is included. This compound is such that in the general formula [I], X is [drawing 59] R is --CH2 OH and both of R1 and R2 are --H.

[1] = tested on: antibody formation (anti-SRBC plaque-forming cells); test: Inhibitory activity against antibody formation (anti-SRBC plaque-forming cells in spleen); format: in vivo, mouse (CDF1-SLC female); details: once a day for three consecutive days, minus shows an increase of antibody formation
Experimental: (b) Inhibitory activity against antibody formation
Test groups and a control group of CDF1 -SLC female mice (each group: five mice) were intravenously sensitized with 1×10^8 /0.2 ml of sheep red blood cells (SRBC). A compound of the present invention was dissolved in a physiological saline solution in various concentrations. Each of the resulting solutions was administered to one of the test groups once a day for three consecutive days from the next day of the sensitization, in an amount of 0.1 ml/10 g (body weight)/day. The physiological saline solution was administered to the control group.
In the fourth day from the sensitization, all the mice were killed and the number of anti-SRBC plaque-forming cells (PFC) in the spleen cells of each mouse was measured. From this number, the PFC number per 10^6 of spleen cells was calculated. The effect of the present compound was expressed as an inhibition percentage (%) of PFC number of test group as compared with control group. [formula]
as §1

mouse leukemia L1210 = test: Life prolongation effect to mouse leukemia L1210; format: in vivo, mouse (CDF1-SLC female); details: once a day for nine consecutive days, 125 or more is effective, read-out: T/C × 100 (life prolongation percentage); for response vs control in vivo at 0.39 mg/kg: 0.39 mg/kg/day; for response vs control in vivo at 0.78 mg/kg: 0.78 mg/kg/day; for response vs control in vivo at 1.56 mg/kg: 1.56 mg/kg/day; for response vs control in vivo at 3.13 mg/kg: 3.13 mg/kg/day; for response vs control in vivo at 6.25 mg/kg: 6.25 mg/kg/day; for response vs control in vivo at 12.5 mg/kg: 12.50 mg/kg/day; for response vs control in vivo at 25 mg/kg: 25.00 mg/kg/day; for response vs control in vivo at 50 mg/kg: 50.00 mg/kg/day
Experimental: 3. Life prolongation effect of present compound to mouse leukemia cells L1210 and its toxicity
1×10^5 /0.2 ml/mouse of mouse leukemia cells L1210 were intraperitoneally transplanted to test groups and a control group of CDF1 -SLC female mice (each group: four mice). A compound of the present invention was dissolved in a physiological saline solution in various concentrations and each of the resulting solutions was administered to one of the test groups once a day for nine consecutive days from the next day of the transplantation, in an amount of 0.1 ml/10 g (body weight)/day. The physiological saline solution was administered to the control group.
All the mice of the test groups and the control group were observed from the next day of the L1210 transplantation to examine their days of survival, and the average days of survival (T) of each test group and the average days of survival (C) of the control group were calculated. The life prolongation percentage of the present compound was expressed as (T/C)×100.
It is believed that a (T/C)×100 of 125 or more is effective.
as §1

[2] = Administration amount 1.56 mg/kg
[3] = Administration amount 6.25 mg/kg
[4] = intraperitoneal, single, lowest amount with which at least one mouse died

SMILES | Administration amount causing acute death to mice (mice; mouse, in vivo, ip) | Inhibitory percentage (antibody formation, PFC number vs control group) [1, 2] | Inhibitory percentage (antibody formation, PFC number vs control group) [1, 3] | response vs control in vivo at 0.39 mg/kg (mouse leukemia L1210) | response vs control in vivo at 0.78 mg/kg (mouse leukemia L1210) | response vs control in vivo at 1.56 mg/kg (mouse leukemia L1210) | response vs control in vivo at 3.13 mg/kg (mouse leukemia L1210) | response vs control in vivo at 6.25 mg/kg (mouse leukemia L1210) | response vs control in vivo at 12.5 mg/kg (mouse leukemia L1210) | response vs control in vivo at 25 mg/kg (mouse leukemia L1210) | response vs control in vivo at 50 mg/kg (mouse leukemia L1210) | Administration amount causing acute death to mice (mice; [4]) | response vs control in vivo at 0.2 mg/kg (mouse leukemia L1210; 0.20 mg/kg/day) | response vs control in vivo at 100 mg/kg (mouse leukemia L1210; 100.00 mg/kg/day)
N=C(N)Nc1ccc(CCCC(=O)N[C@@H](CO)C(=O)NCCCCNCCCNC(=O)[C@@H](N)c2ccccc2)cc1 [Compound No. 1, 10-{N-[4-(4-GP)butanoyl]-L-Ser}-1-L-PhG-1,5,10-TAD trihydrochloride] | 100 mg/kg | 87% | 97% | 146% | 195% | 296% | 269% | 315% | 278% | 294% | 327% |  |  | 
CC(C)C[C@H](N)C(=O)NCCCNCCCCNC(=O)[C@H](CO)NC(=O)CCCc1ccc(NC(=N)N)cc1 [Compound No. 2, 10-{N-[4-(4-GP)butanoyl)-L-Ser}-1-L-] |  | 60% | 92% | 136% | 152% | 244% | 331% | 300% | 272% | 281% | 53% |  |  | 
CC(C)C[C@@H](N)C(=O)NCCCNCCCCNC(=O)[C@H](CO)NC(=O)CCCc1ccc(NC(=N)N)cc1 [Compound No. 3, 10-{N-[4-(4-GP)butanoyl]-L-Ser}-1-D-Leu-1,5,10-TAD trihydrochloride] |  |  |  |  |  |  |  |  |  |  |  | 100 mg/kg |  | 
N=C(N)Nc1ccc(CCCC(=O)N[C@@H](CO)C(=O)NCCCCNCCCNC(=O)[C@H](N)c2ccccc2)cc1 [Compound No. 4, trihydrochloride] | 100 mg/kg | 68% | 95% | 125% | 149% | 195% | 228% | 237% | 243% | 247% | 197% |  |  | 
N=C(N)Nc1ccc(CCCC(=O)N[C@@H](CO)C(=O)NCCCCNCCCNC(=O)[C@@H](N)Cc2ccccc2)cc1 [Compound No. 5, 10-{N-[4-(4-GP)butanoyl]-L-Ser}-1-L-Phe-1,5,10-TAD trihydrochloride] | 100 mg/kg |  |  | 123% | 133% | 146% | 265% | 290% | 290% | 284% | 253% |  |  | 
N=C(N)Nc1ccc(CCCC(=O)N[C@@H](CO)C(=O)NCCCCNCCCNC(=O)[C@@H](N)Cc2ccc(O)cc2)cc1 [Compound No. 6, 10-{N-[4-(4-GP)butanoyl]-L-Ser}-1-L-Tyr-1,5,10-TAD trihydrochloride] | 100 mg/kg |  |  | 125% | 158% | 201% | 267% | 250% | 250% | 270% | 162% |  |  | 
N=C(N)Nc1ccc(CCCC(=O)N[C@@H](CO)C(=O)NCCCCNCCCNC(=O)[C@@H](N)CC(=O)O)cc1 [Compound No. 7, 10-{N-[4-(4-GP)butanoyl]-L-Ser}-1-L-Asp-1,5,10-TAD trihydrochloride] | 100 mg/kg |  |  | 96% | 86% | 99% | 152% | 216% | 265% | 284% | 284% |  |  | 
C[C@H](N)C(=O)NCCCNCCCCNC(=O)[C@H](CO)NC(=O)CCCc1ccc(NC(=N)N)cc1 [Compound No. 8, 10-{N-[4-(4-GP)butanoyl]-L-Ser}-1-L-Ala-1,5,10-TAD trihydrochloride] |  |  |  | 102% | 130% | 164% | 312% | 272% | 290% | 362% |  |  | 109% | 
N=C(N)Nc1ccc(CCCC(=O)N[C@@H](CO)C(=O)NCCCCNCCCNC(=O)[C@@H](N)CO)cc1 [Compound No. 9, 10-{N-[4-(4-GP)butanoyl]-L-Ser}-1-L-Ser-1,5,10-TAD trihydrochloride] | > 100 mg/kg |  |  |  | 118% | 125% | 155% | 191% | 276% | 241% | 250% |  |  | 103%
N=C(N)Nc1ccc(CCCC(=O)N[C@@H](CO)C(=O)NCCCCNCCCNC(=O)[C@@H]2CCCN2)cc1 [Compound No. 10, 10-{N-[4-(4-GP)butanoyl-L-Ser}-1-L-Pro-1,5,10-TAD trihydrochloride] |  |  |  |  |  |  |  |  |  |  |  | 100 mg/kg |  | 
N=C(N)Nc1ccc(CCCC(=O)N[C@@H](CO)C(=O)NCCCCNCCCNC(=O)[C@@H](O)[C@H](N)Cc2ccccc2)cc1 [Compound No. 12, 10-{N-[4-(4-GP)butanoyl]-L-Ser}-1-[(2S, 3R)-AHPA]-1,5,10-TAD trihydrochloride] |  |  |  |  |  |  |  |  |  |  |  | 100 mg/kg |  | 
CC(C)C[C@H](NC(=O)[C@@H](N)CC(C)C)C(=O)NCCCNCCCCNC(=O)[C@H](CO)NC(=O)CCCc1ccc(NC(=N)N)cc1 [Compound No. 13, 10-{N-[4-(4-GP)butanoyl]-L-Ser}-1-L-Leu-L-Leu-1,5,10-TAD trihydrochloride] | 100 mg/kg | 53% | 88% | 132% | 149% | 201% | 283% | 247% | 257% | 274% | 303% |  |  | 
N=C(N)Nc1ccc(CCCC(=O)N[C@@H](CO)C(=O)NCCCCN(CCCNC(=O)[C@@H](N)c2ccccc2)C(=O)[C@@H](N)c2ccccc2)cc1 [Compound No. 14, 10-{N-[4-(4-GP)butanoyl]-L-Ser}-1,5-di-L-PhG-1,5,10-TAD trihydrochloride] | 200 mg/kg | -50% | -75% |  |  |  |  |  |  |  |  |  |  | 
